Experiments:
[1] = target: full-length apo DnaK (DnaK^FL) (Mycobacterium tuberculosis, UniProt P9WMJ9, T175A); assay type: binding
[2] = target: Mtb DnaK oligomers and DnaK-GrpE complex (Mycobacterium tuberculosis, UniProt P9WMJ9, T175A); assay type: binding
[3] = target: apo, ATP-bound or ADP-bound DnaK T175A (Mycobacterium tuberculosis, UniProt P9WMJ9, T175A)
[4] = test system: DnaK^NBD; assay type: binding; conditions: ITC
[5] = target: Mtb DnaK mutants (Mycobacterium tuberculosis, UniProt P9WMJ9, R127A); assay type: biochemical
[6] = target: Mtb DnaK mutants (Mycobacterium tuberculosis, UniProt P9WMJ9, E514A); assay type: biochemical
[7] = target: Mtb DnaK mutants (Mycobacterium tuberculosis, UniProt P9WMJ9); assay type: biochemical
[8] = target: Mtb DnaK Phe400Ala, Thr401Ala (Mycobacterium tuberculosis, UniProt P9WMJ9, F400A); assay type: binding

In the case of `CNC(=O)[C@H]1O[C@@H](n2cnc3c(NCc4cccc(I)c4)nc(Cl)nc32)[C@H](O)[C@@H]1O` [MECA, 2Cl-IB-MECA], the “binding to DnaK alone” value [1] is reported as “does not bind to DnaK alone” and the DnaK-GrpE complex formation [2] is reported as “not affected”.
`CCC[C@H](NC(=O)[C@@H]1[C@H]2CCC[C@H]2CN1C(=O)[C@@H](NC(=O)[C@@H](NC(=O)c1cnccn1)C1CCCCC1)C(C)(C)C)C(=O)C(=O)NC1CC1` [TP, Telaprevir] was tested, and the “cleavage of DnaK by proteinase K” value [3] was “protects full-length DnaK from cleavage”, the “stoichiometry TP: DnaK” value [1] was ~ 0.5 and the “interaction with DnaK^NBD” value [4] was “no interaction”. The “ATPase activity of DnaK Arg127Ala with excess TP” value [5] was “tolerance to excess TP”, the “increase in the IC50 value compared to wild-type” value [6] was 1.4 fold and the “ATPase activity of DnaK lacking last ~110 residues (A513-K625)” value [7] was “still disrupted ATPase activity”. For the same compound, the “oligomeric state of apo DnaK” value [2] was “inhibited formation of dimers and higher order oligomers”.
In the case of “FL-β-Ala-Asn-Arg-Leu-Leu-Leu-Thr-Gly-OH [FL-NR]”, the “EC50 for Phe400Ala relative to WT” value [8] is reported as ~ 40 fold.
